Tests used:
Test in all cases: Pre-emergent herbicidal activity (Table II)
Type in all cases: in vivo
Settings in all cases: 2-3 weeks
Yellow Nutsedge = tested on: Yellow Nutsedge
Method: (§1) The pre-emergence tests are conducted as follows:
(§2) A good grade of top soil is placed in aluminum pans and compacted to a depth of three-eighths to one-half inch from the top of the pan. On the top of the soil is placed a predetermined number of seeds or vegetative propagules of various plant species. The soil required to level fill the pans after seeding or adding vegetative propagules is weighed into a pan. A known amount of the active ingredient applied in a solvent or as a wettable powder suspension and the soil are thoroughly mixed, and used as a cover layer for prepared pans. After treatment, the pans are moved into a greenhouse bench where they are watered from below as needed to give adequate moisture for germination and growth.
(§3) Approximately 2-3 weeks after seeding and treating, the plants are observed and the results recorded. The herbicidal rating is obtained by means of fixed scale based on the percent injury of each plant species. The ratings are defined as follows: […]
(§4) The plant species utilized in one set of tests, the data for which are shown in Table II, are identified by letter in accordance with the following legend: […]

Lambsquarters = tested on: Lambsquarters
Method: as §1, §2, §3, §4

Johnsongrass = tested on: Johnsongrass
Method: as §1, §2, §3, §4

Morningglory = tested on: Morningglory
Method: as §1, §2, §3, §4

Canada Thistle = tested on: Canada Thistle
Method: as §1, §2, §3, §4

Quackgrass = tested on: Quackgrass
Method: as §1, §2, §3, §4

Velvetleaf = tested on: Velvetleaf
Method: as §1, §2, §3, §4

Downy Brome = tested on: Downy Brome
Method: as §1, §2, §3, §4

Smartweed = tested on: Smartweed
Method: as §1, §2, §3, §4

Cocklebur = tested on: Cocklebur
Method: as §1, §2, §3, §4

Barnyardgrass = tested on: Barnyardgrass
Method: as §1, §2, §3, §4
Further: ranges in brackets are in %.

## CCOc1ccc2c(c1)sc(=O)n2CN(C(=O)CCl)C1=C(C)C(C)CCC1 (centres unmarked) [Example 8, N--[(6-ethoxy-2-oxo-3(2H)--benzothiazolyl)methyl]-N--(2,3-dimethyl-1-cyclohexen-1-yl)-2-chloroacetamide]
Yellow Nutsedge; 5.6 kg/ha
  Herbicidal rating: 0 (0-24)
Yellow Nutsedge; 11.2 kg/ha
  Herbicidal rating: 0 (0-24)
Lambsquarters; 5.6 kg/ha
  Herbicidal rating: 0 (0-24)
Lambsquarters; 11.2 kg/ha
  Herbicidal rating: 0 (0-24)
Johnsongrass; 5.6 kg/ha
  Herbicidal rating: 0 (0-24)
Johnsongrass; 11.2 kg/ha
  Herbicidal rating: 0 (0-24)
Morningglory; 5.6 kg/ha
  Herbicidal rating: 0 (0-24)
Morningglory; 11.2 kg/ha
  Herbicidal rating: 0 (0-24)
Canada Thistle; 5.6 kg/ha
  Herbicidal rating: 0 (0-24)
Canada Thistle; 11.2 kg/ha
  Herbicidal rating: 0 (0-24)
Quackgrass; 5.6 kg/ha
  Herbicidal rating: 0 (0-24)
Quackgrass; 11.2 kg/ha
  Herbicidal rating: 0 (0-24)
Velvetleaf; 5.6 kg/ha
  Herbicidal rating: 0 (0-24)
Velvetleaf; 11.2 kg/ha
  Herbicidal rating: 0 (0-24)
Downy Brome; 5.6 kg/ha
  Herbicidal rating: 0 (0-24)
Downy Brome; 11.2 kg/ha
  Herbicidal rating: 0 (0-24)
Smartweed; 5.6 kg/ha
  Herbicidal rating: 0 (0-24)
Smartweed; 11.2 kg/ha
  Herbicidal rating: 0 (0-24)
Cocklebur; 5.6 kg/ha
  Herbicidal rating: 0 (0-24)
Barnyardgrass; 5.6 kg/ha
  Herbicidal rating: 1 (25-49)
Barnyardgrass; 11.2 kg/ha
  Herbicidal rating: 0 (0-24)

## CC1=C(N(Cn2c(=O)oc3ccccc32)C(=O)CCl)C(C)CCC1 (centres unmarked) [Example 11, N--[(2-oxo-3(2H)--benzoxazolyl)methyl]-N--(2,6-dimethyl-1-cyclohexen-1-yl)-2-chloro-amide]
Yellow Nutsedge; 5.6 kg/ha
  Herbicidal rating: 3 (75-100)
Yellow Nutsedge; 11.2 kg/ha
  Herbicidal rating: 1 (25-49)
Lambsquarters; 5.6 kg/ha
  Herbicidal rating: 2 (50-74)
Lambsquarters; 11.2 kg/ha
  Herbicidal rating: 1 (25-49)
Johnsongrass; 5.6 kg/ha
  Herbicidal rating: 0 (0-24)
Johnsongrass; 11.2 kg/ha
  Herbicidal rating: 0 (0-24)
Morningglory; 5.6 kg/ha
  Herbicidal rating: 0 (0-24)
Morningglory; 11.2 kg/ha
  Herbicidal rating: 0 (0-24)
Canada Thistle; 5.6 kg/ha
  Herbicidal rating: 0 (0-24)
Canada Thistle; 11.2 kg/ha
  Herbicidal rating: 0 (0-24)
Quackgrass; 5.6 kg/ha
  Herbicidal rating: 1 (25-49)
Quackgrass; 11.2 kg/ha
  Herbicidal rating: 3 (75-100)
Velvetleaf; 5.6 kg/ha
  Herbicidal rating: 0 (0-24)
Velvetleaf; 11.2 kg/ha
  Herbicidal rating: 0 (0-24)
Downy Brome; 5.6 kg/ha
  Herbicidal rating: 3 (75-100)
Downy Brome; 11.2 kg/ha
  Herbicidal rating: 3 (75-100)
Smartweed; 5.6 kg/ha
  Herbicidal rating: 0 (0-24)
Smartweed; 11.2 kg/ha
  Herbicidal rating: 0 (0-24)
Cocklebur; 5.6 kg/ha
  Herbicidal rating: 0 (0-24)
Cocklebur; 11.2 kg/ha
  Herbicidal rating: 0 (0-24)
Barnyardgrass; 5.6 kg/ha
  Herbicidal rating: 3 (75-100)
Barnyardgrass; 11.2 kg/ha
  Herbicidal rating: 3 (75-100)

## CC1=C(N(Cn2c(=O)sc3cc(Br)ccc32)C(=O)CCl)C(C)CCC1 (centres unmarked) [Example 7, N--[(6-bromo-2-oxo-3(2H)--benzothiazolyl)methyl]-N--(2,6-dimethyl-1-cyclohexen-1-yl)-2-chloroacetamide]
Yellow Nutsedge; 5.6 kg/ha
  Herbicidal rating: 0 (0-24)
Yellow Nutsedge; 11.2 kg/ha
  Herbicidal rating: 0 (0-24)
Lambsquarters; 5.6 kg/ha
  Herbicidal rating: 0 (0-24)
Lambsquarters; 11.2 kg/ha
  Herbicidal rating: 1 (25-49)
Johnsongrass; 5.6 kg/ha
  Herbicidal rating: 0 (0-24)
Johnsongrass; 11.2 kg/ha
  Herbicidal rating: 0 (0-24)
Morningglory; 5.6 kg/ha
  Herbicidal rating: 0 (0-24)
Morningglory; 11.2 kg/ha
  Herbicidal rating: 0 (0-24)
Canada Thistle; 5.6 kg/ha
  Herbicidal rating: 0 (0-24)
Canada Thistle; 11.2 kg/ha
  Herbicidal rating: 0 (0-24)
Quackgrass; 5.6 kg/ha
  Herbicidal rating: 0 (0-24)
Quackgrass; 11.2 kg/ha
  Herbicidal rating: 0 (0-24)
Velvetleaf; 5.6 kg/ha
  Herbicidal rating: 0 (0-24)
Velvetleaf; 11.2 kg/ha
  Herbicidal rating: 0 (0-24)
Downy Brome; 5.6 kg/ha
  Herbicidal rating: 0 (0-24)
Downy Brome; 11.2 kg/ha
  Herbicidal rating: 0 (0-24)
Smartweed; 5.6 kg/ha
  Herbicidal rating: 0 (0-24)
Smartweed; 11.2 kg/ha
  Herbicidal rating: 0 (0-24)
Cocklebur; 5.6 kg/ha
  Herbicidal rating: 0 (0-24)
Cocklebur; 11.2 kg/ha
  Herbicidal rating: 0 (0-24)
Barnyardgrass; 5.6 kg/ha
  Herbicidal rating: 1 (25-49)
Barnyardgrass; 11.2 kg/ha
  Herbicidal rating: 1 (25-49)

Reference: US4731451A, “N-((2-oxo-3(2H)benzothiazolyl)methyl)-2-chloroacetanilides” (Monsanto Company, priority 1980, dated 1988)
